Measurements as given in US20100152261A1 (MITSUBISHI TANABE PHARMA CORPORATION, priority 2005, published 2010).
Like-named read-outs stand apart in the source and are kept apart here.

How the values were obtained:
muscarinic M3 receptor = molecular target: T1, muscarinic M3 receptor (Cavia porcellus, UniProt H0W1Z3); test: Muscarinic M3 antagonistic action in isolated guinea pig trachea (carbachol-induced contraction, Schild method); assay type: cell-based; details: compound applied 15 minutes before carbachol
T1 construct: trachea was excised, and cut at every two tracheal cartilages to prepare tissue specimens; from tissue; host or cells: isolated guinea pig trachea (male Hartley)
Description: Muscarinic M3 Antagonistic Action in Isolated Guinea Pig Trachea
Male Hartley guinea pigs (350 to 600 g) were sacrificed by bleeding, and trachea was excised, and cut at every two tracheal cartilages to prepare tissue specimens. Each tissue specimen was kept warm at 37° C., suspended with a resting tension of 1 g in a 5-mL Magnus bath filled with a Krebs carbonate buffer containing indomethacin (1 μM) bubbled with 95% O2/5% CO2, and left for 60 minutes as a stabilization period. […] After the measurement, the tissue specimen was immediately washed, and left for 60 minutes as a stabilization period before the next contraction reaction, and the tissue specimen of which EC50 for the carbachol-induced contraction reaction was stabilized was considered as a control. Each test compound was applied 15 minutes before the addition of carbachol. The affinity (pA2) of the test compound was obtained by the Schild method (Arunlakshana, O. and Schild, H. O., Brit. J. Pharmacol., 1959, 14, 48-58).

[1] = system: Bronchoconstriction in Guinea Pigs (induced with acetylcholine); test: Effect on bronchoconstriction in guinea pigs (via inhalation administration), Konzett method; assay type: in vivo; details: guinea pig, intratracheal administration 10 μL g/head, 24 hours after administration, acetylcholine 4 μg/kg i.v., versus control group; for inhibition in vivo at 0.01 mg: Cavia porcellus, iv, read-out: Percent of inhibition of bronchoconstriction (%)
Description: Effect on Bronchoconstriction in Guinea Pigs (Via Inhalation Administration)
The test was performed according to the method of Konzett et al. (Arch. Exp. Path Pharmak., 1940, 195, 71-74). Male Hartley guinea pigs (350 to 600 g) were anesthetized with urethane (1.8 g/kg, i.p.), and then a cannula for drug administration was inserted into each left jugular vein. After the immobilization with decamethonium (2 mg/kg, i.v.), a tracheal cannula was inserted, and controlled respiration was attained by a respirator (Harvard). Bronchoconstriction was measured as changes of airway pressure with a pressure transducer (Nihon Kohden Corp.). Each test compound was administered (10 μL g/head) from dissected trachea by using a device for intratracheal administration of liquid for guinea pigs (Penn Century), and after suture, the animals were returned to usual breeding. After 24 hours, acetylcholine (4 μg/kg, i.v.) was administered to induce bronchoconstriction, and inhibitory activity on bronchoconstriction was calculated as percent inhibition comparing to the change of airway pressure in control group was obtained.

muscarinic M2 receptor = molecular target: T2, muscarinic M2 receptor (Cavia porcellus, UniProt H0VRN8); test: Muscarinic M2 antagonistic action in isolated guinea pig left atrium (carbachol-induced relaxation, Schild method); assay type: cell-based; details: compound applied 30 minutes before carbachol
T2 construct: left atria were excised to prepare tissue specimens; from tissue; host or cells: isolated guinea pig left atrium (male Hartley)
T2 sequence (H0VRN8 1-466): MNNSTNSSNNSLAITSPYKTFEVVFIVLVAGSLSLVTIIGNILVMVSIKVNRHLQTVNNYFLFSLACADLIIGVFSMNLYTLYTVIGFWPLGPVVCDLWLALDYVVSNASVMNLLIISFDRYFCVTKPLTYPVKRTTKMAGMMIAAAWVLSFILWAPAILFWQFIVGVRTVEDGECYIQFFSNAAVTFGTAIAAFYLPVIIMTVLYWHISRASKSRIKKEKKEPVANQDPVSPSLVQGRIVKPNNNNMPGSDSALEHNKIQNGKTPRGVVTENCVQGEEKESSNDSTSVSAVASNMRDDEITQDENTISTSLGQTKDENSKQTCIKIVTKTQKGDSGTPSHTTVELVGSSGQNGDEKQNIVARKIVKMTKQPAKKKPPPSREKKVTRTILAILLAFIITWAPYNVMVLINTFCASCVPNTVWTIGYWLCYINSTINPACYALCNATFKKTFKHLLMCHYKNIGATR
Description: Muscarinic M2 Antagonistic Action in Isolated Guinea Pig Left Atrium […] Each tissue specimen was kept warm at 37° C., suspended with a resting tension of 0.5 g in a 5-mL Magnus bath filled with a Krebs carbonate buffer bubbled with 95% O2/5% CO2. Then, contraction evoked by field electrical stimulation (4 Hz, 2 msec, 1.5×threshold potential) was measured. After a stabilization period of 60 minutes, carbachol-induced relaxation was isometrically measured and recorded by the cumulative method from 10^−8 M with an interval of 90 seconds for one concentration in an equal ratio of 3. After the measurement, the tissue specimen was immediately washed, and left for 45 minutes as a stabilization period before the next observation. The tissue specimen of which EC50 for the carbachol-induced relaxation was stabilized was considered as a control. Each test compound was applied 30 minutes before the addition of carbachol. The affinity (pA2) of the test compound was obtained in the same manner as in the case of the trachea.

[2] = pA2 Trachea M3, isolated guinea pig trachea
[3] = pA2 Left atrium M2, isolated guinea pig left atrium
[4] = isolated guinea pig left atrium
[5] = isolated guinea pig trachea, read-out: pA2 Trachea M3 (converted)
[6] = isolated guinea pig left atrium, read-out: pA2 Left atrium M2 (converted)

T1 sequence (H0W1Z3 1-590): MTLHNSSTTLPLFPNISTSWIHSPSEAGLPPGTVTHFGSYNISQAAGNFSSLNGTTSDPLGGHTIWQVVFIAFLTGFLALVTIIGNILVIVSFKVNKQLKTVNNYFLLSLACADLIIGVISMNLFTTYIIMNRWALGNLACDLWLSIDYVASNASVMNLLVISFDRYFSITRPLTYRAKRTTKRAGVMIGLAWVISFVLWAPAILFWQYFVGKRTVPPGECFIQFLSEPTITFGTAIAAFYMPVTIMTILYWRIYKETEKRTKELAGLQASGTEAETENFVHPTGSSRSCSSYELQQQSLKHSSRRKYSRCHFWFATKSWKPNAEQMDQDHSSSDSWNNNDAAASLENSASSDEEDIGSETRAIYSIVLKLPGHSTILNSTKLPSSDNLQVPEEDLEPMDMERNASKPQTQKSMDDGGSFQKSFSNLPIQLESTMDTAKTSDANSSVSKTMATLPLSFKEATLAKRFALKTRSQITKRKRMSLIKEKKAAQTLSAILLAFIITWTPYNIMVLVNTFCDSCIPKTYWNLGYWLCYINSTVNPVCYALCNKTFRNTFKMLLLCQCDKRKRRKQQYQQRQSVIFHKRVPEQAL

Compound | Kb (muscarinic M3 receptor; [2]) | inhibition in vivo at 0.01 mg [1] | Kb (muscarinic M2 receptor; [3]) | other results
Cc1n([C@H]2CC[C@@H](C(C(N)=O)(c3ccccc3)c3ccccc3)C2)cc[n+]1C(F)F (relative stereo) [Example 37, 3-(cis-3-(Carbamoyl(diphenyl)methyl)cyclopentyl)-1-difluoromethyl-2-methyl-3H-imidazol-1-ium bromide] | 0.794 nM | 80% |  | 
Cc1n([C@H]2CC[C@@H](C(C(N)=O)(c3ccccc3)c3ccccc3)C2)cc[n+]1CC1CCC1 (relative stereo) [Example 40, 3-(cis-3-(Carbamoyl(diphenyl)methyl)cyclopentyl)-1-cyclobutylmethyl-2-methyl-3H-imidazol-1-ium bromide] | 0.398 nM | 100% | 7.94 nM | 
Cc1n([C@H]2CC[C@@H](C(C(N)=O)(c3ccccc3)c3ccccc3)C2)cc[n+]1CC1CC1 (relative stereo) [Example 30, 3-(cis-3-(Carbamoyl(diphenyl)methyl)cyclopentyl)-1-cyclopropylmethyl-2-methyl-3H-imidazol-1-ium bromide] |  | 80% |  | 
COCC[n+]1ccn([C@@H]2CC[C@H](C(C(N)=O)(c3ccccc3)c3ccccc3)C2)c1C [Example 63, 3-((1R,3S)-3-(Carbamoyl(diphenyl)methyl)cyclopentyl)-1-(2-methoxyethyl)-2-methyl-3H-imidazol-1-ium bromide] | 0.316 nM | 100% | 7.94 nM | 
Cc1n(Cc2ccc(F)cc2)cc[n+]1[C@H]1CC[C@@H](C(C(N)=O)(c2ccccc2)c2ccccc2)C1.[Br-] (relative stereo) [Example 7, 3-(cis-3-(Carbamoyl(diphenyl)methyl)cyclopentyl)-1-(4-fluoro-benzyl)-2-methyl-1-3H-imidazol-1-ium bromide] |  |  |  | pA2 Trachea M3 (muscarinic M3 receptor; isolated guinea pig trachea): 9.6; pA2 Left atrium M2 (muscarinic M2 receptor; [4]): 8.5; Percent of inhibition of bronchoconstriction (%) [1]: 90%
Cc1n([C@H]2CC[C@@H](C(C(N)=O)(c3ccccc3)c3ccccc3)C2)cc[n+]1CC[C@H]1CO1.[Br-] (relative stereo) [Example 36, 3-(cis-3-(Carbamoyl(diphenyl)methyl)cyclopentyl)-2-methyl-1-(2-(S)-oxiranyl-ethyl)-3H-imidazo-1-ium bromide] |  |  |  | pA2 Trachea M3 (muscarinic M3 receptor; isolated guinea pig trachea): 9; pA2 Left atrium M2 (muscarinic M2 receptor; [4]): 7.7; Percent of inhibition of bronchoconstriction (%) [1]: 90%
Cc1n([C@H]2CC[C@@H](C(C(N)=O)(c3ccccc3)c3ccccc3)C2)cc[n+]1Cc1ccccc1 [Example 83, 3-((1S,3R)-3-(Carbamoyl(diphenyl)methyl)cyclopentyl)-1-benzyl-2-methyl-3H-imidazol-1-ium bromide] |  | 100% |  | Kb (muscarinic M3 receptor; [5]): 0.0794 nM; Kb (muscarinic M2 receptor; [6]): 5.01 nM
Cc1n([C@@H]2CC[C@H](C(C(N)=O)(c3ccccc3)c3ccccc3)C2)cc[n+]1Cc1ccccc1 [Example 91, 3-((1R,3S)-3-(Carbamoyl(diphenyl)methyl)cyclopentyl)-1-benzyl-2-methyl-3H-imidazol-1-ium bromide] | 0.1 nM | 100% | 3.98 nM | 
CC1=NCCN1[C@@H]1CC[C@H](C(C(N)=O)(c2ccccc2)c2ccccc2)C1 (relative stereo) [Reference Example 13, 2-(cis-3-(2-Methyl-4,5-dihydroimidazol-1-yl)cyclopentyl)-2,2-diphenylacetamide, reference compound] |  | 20% |  | Kb (muscarinic M3 receptor; [5]): 5.01 nM; Kb (muscarinic M2 receptor; [6]): 79.4 nM
CC1=[N+](C)CCN1[C@H]1CC[C@@H](C(C(N)=O)(c2ccccc2)c2ccccc2)C1 (relative stereo) [Example 56, 3-(cis-3-(Carbamoyl(diphenyl)methyl)cyclopentyl)-1,2-dimethyl-4,5-dihydro-3H-imidazol-1-ium iodide] | 2.51 nM | 100% | 31.6 nM | 
Cc1n(CC2CO2)cc[n+]1[C@H]1CC[C@@H](C(C(N)=O)(c2ccccc2)c2ccccc2)C1.[Br-] (relative stereo) [Example 22] |  |  |  | pA2 Trachea M3 (muscarinic M3 receptor; isolated guinea pig trachea): 9; pA2 Left atrium M2 (muscarinic M2 receptor; [4]): 7.7; Percent of inhibition of bronchoconstriction (%) [1]: 80%
Cc1n([C@H]2CC[C@@H](C(C(N)=O)(c3ccccc3)c3ccccc3)C2)cc[n+]1Cc1ccc(F)cc1 [Example 85, 3-((1S,3R)-3-(Carbamoyl(diphenyl)methyl)cyclopentyl)-1-(4-fluorobenzyl)-2-methyl-3H-imidazol-1-ium bromide] | 0.794 nM |  | 31.6 nM | 
Cc1n([C@H]2CC[C@@H](C(C(N)=O)(c3ccccc3)c3ccccc3)C2)cc[n+]1CCO.[Br-] [Example 84, 3-((1S,3R)-3-(Carbamoyl(diphenyl)methyl)cyclopentyl)-1-hydroxyethyl-2-methyl-3H-imidazol-1-ium bromide] |  |  |  | pA2 Trachea M3 (muscarinic M3 receptor; isolated guinea pig trachea): 8.2; pA2 Left atrium M2 (muscarinic M2 receptor; [4]): 6.3
COCC[n+]1ccn([C@H]2CC[C@@H](C(C(N)=O)(c3ccccc3)c3ccccc3)C2)c1C (relative stereo) [Example 26, 3-(cis-3-(Carbamoyl(diphenyl)methyl)cyclopentyl)-1-(2-methoxy-ethyl)-2-methyl-3H-imidazol-1-ium bromide] | 0.2 nM | 70% | 12.6 nM | 
3-(trans-3-(Carbamoyl(diphenyl)methyl)cyclopentyl)-1-cyclopentylmethyl-2-methyl-3H-imidazol-1-ium bromide [Example 68] |  |  |  | pA2 Trachea M3 (muscarinic M3 receptor; isolated guinea pig trachea): 9.4; pA2 Left atrium M2 (muscarinic M2 receptor; [4]): 7.4
C[n+]1ccn([C@H]2CC[C@@H](C(C(N)=O)(c3ccccc3)c3ccccc3)C2)c1 (relative stereo) [Example 5, 3-(cis-3-(Carbamoyl(diphenyl)methyl)cyclopentyl)-1-methyl-3H-imidazol-1-ium iodide] | 2.51 nM |  | 31.6 nM | 
Cc1n([C@H]2CC[C@H](C(C(N)=O)(c3ccccc3)c3ccccc3)C2)cc[n+]1CCC(C)C (relative stereo) [Example 73, 3-(trans-3-(Carbamoyl(diphenyl)methyl)cyclopentyl)-2-methyl-1-(3-methylbutyl)-3H-imidazol-1-ium bromide] | 0.631 nM |  | 6.31 nM | 
Cc1n([C@H]2CC[C@H](C(C#N)(c3ccccc3)c3ccccc3)C2)cc[n+]1Cc1ccccc1 (relative stereo) [Example 87, 1-Benzyl-3-(trans-3-(cyano(diphenyl)methyl)cyclopentyl)-2-methyl-3H-imidazol-1-ium bromide] | 1 nM |  | 50.1 nM | 
CC1=[N+](C)CCN1[C@@H]1CC[C@H](C(C(N)=O)(c2ccccc2)c2ccccc2)C1 [Example 57, 3-((1R,3S)-3-(Carbamoyl(diphenyl)methyl)cyclopentyl)-1,2-dimethyl-4,5-dihydro-3H-imidazol-1-ium iodide] | 1.26 nM |  | 25.1 nM | 
